# From patent EP1662258A1, “A substrate free in vitro protein kinase assay” (Sirenade Pharmaceuticals AG, priority 2004, dated 2006)
# Where “and” joins values, the source holds several entries; their conditions need not be identical. Equal entries are not always repeated. Entries after “also recorded” stand apart in the source; their conditions may differ.
# Tests used:
# Src kinase (Srcv1) = Src kinase (Srcv1) (Homo sapiens, UniProt P12931); assay: Src protein tyrosine kinase auto-phosphorylation (autoactivation) assay, Srcv1 immobilised on Ni-NTA plates, anti p-Tyr chemoluminiscence readout
# Protocol: The assay will be performed as a solid phase assay, which can be done by immobilisation of the kinase (Srcv1) via its His6-tag on Ni-NTA coated 96 wells (Qiagen), as this assay system allows washing steps. Thus it was evaluated, whether it is possible to detect auto-phosphorylated src kinase, immobilized on Ni-NTA coated plates with an HRP labeled anti p-Tyr antibody. Therefore, Src kinase (1.0µM) was incubated for 30 min either in the presence and absence of 50 µM ATP at RT in incubation buffer (50 mM Tris/HCl, pH 7.2, 10 mM MgCl2). Afterwards the solution was diluted to 1.0, 0.5, 0.25 and 0.0 µM final src protein concentration in PBS and incubated for 30 min (V= 200µl) on NiNTA coated plates at RT on a rotation shaker (300 rpm). After removal of the supernatant and 3 times washing with 200 µl PBS-T, immobilized, phosphorylated src kinase was detected. Therefore, a solution of HRP-labeled anti p-Tyr antibody (Abcam) (200 µl, 1:2000 diluted in PBST-0.5% BSA) was added to the wells and the plate was incubated for 30 min at RT °C, 300 rpm. After removal of the supernatant and 3 times washing with 200 µl PBS-T, chemoluminiscence development buffer was added (200 µl of a 1:1 mixture of ECL substrate, Amersham) and chemoluminiscence signal was quantified using Wallac1420 Multilabel counter (Victor^2).
# Afterwards 100 µl assay buffer containing 100 µM ATP was added (except for the negative control which was incubated with 100 µl assay buffer without ATP) and the mixture was transfered to Ni-NTA coated plates and further incubated for 20 min at RT on a rotation shaker (300 rpm). The degree of src kinase auto-phosphorylation was detected with an anti p-Tyr-antibody as described above (see Figure 3a).
# The solution was transfered on NiNTA plates and incubated for 30 min with 100 µl assay buffer containing 100 µM ATP for the auto-phosphorylation of src. The degree of src kinase auto-phosphorylation was detected with an anti p-Tyr-antibody as described above (see Figure 3b).
# Src kinase Srcv2 = Src kinase Srcv2 (Homo sapiens, UniProt P12931); assay: Src protein tyrosine kinase auto-phosphorylation (autoactivation) assay with Srcv2
# Protocol: After mixing the kinase with the compound the final DMSO concentration was 40%. Then, 190 µl of the preincubated compound/kinase solution are transfered to 96 well Ni-NTA plates (Ni-NTA HisSorb™ plates, white, Qiagen (cat.No.35081) and incubated for 30 min at room temperature on a rotation shaker at 300 rpm to allow binding of the kinase to the wells. The kinase/compound solution containing unbound kinase and compound is carefully replaced by 200 µl of DMSO free initiation buffer (50 mM Tris/HCl, pH 7.2, 10 mM MgCl2, 100 µM ATP) per well and the plate is incubated for 20 min at room temperature on a rotation shaker at 300 rpm.
# The initiation buffer is then removed carefully and the plate is washed two times with PBS-Tween (PBS-T) buffer (50 mM potassium phosphate, pH 7.2, 150 mM NaCl, 0.05 % Tween 20) (200 µl per well per washing step).
# The antibody solution is removed carefully and the plate is washed three times with 200 µl PBS-T buffer (200 µl per well per washing step).
# • 2.7.1 The assay was used for qualitative and quantitative analysis of different compound classes. […] The assay was performed either manually or in a semiautomatic approach using the EP3 robotor (Perkin Elmer) for automated pipetting steps. […] Solution was removed and 200 µl assay buffer, containing 100µM ATP was added and the plate was incubated for 30 min at RT on a rotation shaker. Solution was removed and wells were washed 3 times with 200µl PBST. Afterwards 200 µl 1:2000 diluted anti p-Tyr antibody in PBST-0.5% BSA was added and the plate was incubated for 30 min at RT on a rotation shaker. The degree of src kinase auto-phosphorylation was detected with an anti p-Tyr-antibody as described above. […] The DMSO concentration was 30 %. […] The measurements were carried out either as unicates or as triplicates. The standard deviation is shown by error bars.
# In order to get information about the quality of the assay the z' was determined for the assay. For determination of the maximal counts src v2 in the absence of inhibitor was used.
compound,measurement,setting,value
Cc1ccc(-c2nn(C(C)(C)C)c3ncnc(N)c23)cc1 [PP1],inhibition of auto-phosphorylation of src kinase (in words),"Src kinase (Srcv1); 100 µl src kinase (1.0 µM), compound 1.25 mM, 30% DMSO, 100 µM ATP, Figure 3b",potently inhibits; also recorded: strongest inhibition
same,inhibition of the kinase activity (in words),"Src kinase (Srcv1); Src kinase (100µl, 2.0 µM), PP1 1.25 mM, 10% DMSO, ATP 100 µM, Figure 3A",clear inhibition
same,"chemoluminiscence signal (counts), mean, first series",Src kinase Srcv2,5948
same,"chemoluminiscence signal (counts), mean, second series",Src kinase Srcv2,5700
same,"chemoluminiscence signal (counts), single values, first series",Src kinase Srcv2,5816 and 5922 and 5781 and 6275
same,"chemoluminiscence signal (counts), single values, second series",Src kinase Srcv2,6060 and 5465 and 5523 and 5752
same,"inhibition of Srcv2 kinase (dose response curves, in words)",Src kinase Srcv2,showed inhibition
